Data as given in the NIST ThermoML archive (doi:10.1016/j.fluid.2006.01.022).
Numbers after ± are expanded uncertainties.

Columns and labels:
[1] = 101.33 kPa, Liquid, Alternating current cell with electrodes
[2] = xn = mol fraction of the nth substance listed; conditions: Liquid, Alternating current cell with electrodes

CCOS(=O)(=O)[O-].CCn1cc[n+](C)c1 [1-ethyl-3-methylimidazolium ethyl sulfate]
[1]
Conditions	electrical conductivity [S/m]
258.1 K	0.0286 ± 0.0057
263.1 K	0.0374 ± 0.0075
268.1 K	0.0495 ± 0.0099
273.1 K	0.0727 ± 0.015
278.1 K	0.105 ± 0.021
283.1 K	0.139 ± 0.028
288.1 K	0.202 ± 0.04
293.1 K	0.291 ± 0.058
298.1 K	0.382 ± 0.076
303.1 K	0.485 ± 0.097
308.1 K	0.606 ± 0.12
313.1 K	0.724 ± 0.14
318.1 K	0.861 ± 0.17
323.1 K	1.01 ± 0.2
328.1 K	1.18 ± 0.24
333.1 K	1.35 ± 0.27
338.1 K	1.54 ± 0.31
343.1 K	1.75 ± 0.35
348.1 K	1.95 ± 0.39
353.1 K	2.18 ± 0.44
358.1 K	2.41 ± 0.48
363.1 K	2.68 ± 0.54
368.1 K	3 ± 0.6
373.1 K	3.29 ± 0.66
378.1 K	3.57 ± 0.71
383.1 K	3.86 ± 0.77
388.1 K	4.15 ± 0.83
393.1 K	4.47 ± 0.89
398.1 K	4.77 ± 0.95
403.1 K	5.09 ± 1
408.1 K	5.39 ± 1.1
413.1 K	5.68 ± 1.1
418.1 K	6 ± 1.2
423.1 K	6.29 ± 1.3
428.1 K	6.58 ± 1.3
433.1 K	6.86 ± 1.4

CCn1cc[n+](C)c1.F[B-](F)(F)F [1-ethyl-3-methylimidazolium tetrafluoroborate]
[1]
Conditions	electrical conductivity [S/m]
258.1 K	0.245 ± 0.049
263.1 K	0.296 ± 0.059
268.1 K	0.445 ± 0.089
273.1 K	0.612 ± 0.12
278.1 K	0.735 ± 0.15
283.1 K	0.896 ± 0.18
288.1 K	1.09 ± 0.22
293.1 K	1.3 ± 0.26
298.1 K	1.57 ± 0.31
303.1 K	1.79 ± 0.36
308.1 K	2.02 ± 0.4
313.1 K	2.28 ± 0.46
318.1 K	2.55 ± 0.51
323.1 K	2.85 ± 0.57
328.1 K	3.22 ± 0.64
333.1 K	3.56 ± 0.71
338.1 K	3.95 ± 0.79
343.1 K	4.35 ± 0.87
348.1 K	4.77 ± 0.95
353.1 K	5.22 ± 1
358.1 K	5.55 ± 1.1
363.1 K	5.95 ± 1.2
368.1 K	6.46 ± 1.3
373.1 K	6.9 ± 1.4
378.1 K	7.36 ± 1.5
383.1 K	7.83 ± 1.6
388.1 K	8.32 ± 1.7
393.1 K	8.77 ± 1.8
398.1 K	9.29 ± 1.9
403.1 K	9.79 ± 2
408.1 K	10.3 ± 2
413.1 K	10.8 ± 2.2
418.1 K	11.3 ± 2.3
423.1 K	11.8 ± 2.4
428.1 K	12.3 ± 2.5
433.1 K	12.7 ± 2.5

[Br][Al]([Br])[Br] [aluminum bromide] + CCn1cc[n+](C)c1.[Br-]
electrical conductivity [S/m], [2]
Conditions	x1 = 0.3	x1 = 0.6
258.1 K	0.048 ± 0.0096	0.0432 ± 0.0086
263.1 K	0.0898 ± 0.018	0.0717 ± 0.014
268.1 K	0.122 ± 0.024	0.113 ± 0.023
273.1 K	0.22 ± 0.044	0.16 ± 0.032
278.1 K	0.284 ± 0.057	0.226 ± 0.045
283.1 K	0.454 ± 0.091	0.338 ± 0.068
288.1 K	0.599 ± 0.12	0.447 ± 0.089
293.1 K	0.784 ± 0.16	0.645 ± 0.13
298.1 K	0.979 ± 0.2	0.877 ± 0.17
303.1 K	1.21 ± 0.24	1.14 ± 0.23
308.1 K	1.49 ± 0.3	1.42 ± 0.28
313.1 K	1.82 ± 0.36	1.75 ± 0.35
318.1 K	2.14 ± 0.43	2.11 ± 0.42
323.1 K	2.54 ± 0.51	2.56 ± 0.51
328.1 K	3.05 ± 0.61	3.04 ± 0.61
333.1 K	3.5 ± 0.7	3.62 ± 0.72
338.1 K	4.05 ± 0.81	4.22 ± 0.84
343.1 K	4.6 ± 0.92	4.87 ± 0.97
348.1 K	5.14 ± 1	5.56 ± 1.1
353.1 K	5.79 ± 1.2	6.35 ± 1.3
358.1 K	6.95 ± 1.4	7.16 ± 1.4
363.1 K	7.62 ± 1.5	7.79 ± 1.6
368.1 K	8.28 ± 1.7	8.57 ± 1.7
373.1 K	8.95 ± 1.8	9.46 ± 1.9
378.1 K	9.7 ± 1.9	10.4 ± 2.1
383.1 K	10.6 ± 2.1	11.4 ± 2.3
388.1 K	11.4 ± 2.3	12.3 ± 2.5
393.1 K	12 ± 2.4	12.8 ± 2.6
398.1 K	–	13.7 ± 2.7
403.1 K	–	14.5 ± 2.9
408.1 K	–	15.3 ± 3.1
413.1 K	–	15.8 ± 3.2
418.1 K	–	16.5 ± 3.3

[Cl][Al]([Cl])[Cl] [aluminum chloride] + CCn1cc[n+](C)c1.[Cl-]
electrical conductivity [S/m], [2]
Conditions	x1 = 0.33	x1 = 0.6
253.1 K	0.0315 ± 0.0063	0.0377 ± 0.0075
258.1 K	0.0515 ± 0.01	0.0517 ± 0.01
263.1 K	0.0855 ± 0.017	0.1 ± 0.02
268.1 K	0.127 ± 0.025	0.143 ± 0.029
273.1 K	0.195 ± 0.039	0.206 ± 0.041
278.1 K	0.3 ± 0.06	0.283 ± 0.057
283.1 K	0.39 ± 0.078	0.385 ± 0.077
288.1 K	0.53 ± 0.11	0.515 ± 0.1
293.1 K	0.705 ± 0.14	0.669 ± 0.13
298.1 K	0.907 ± 0.18	0.861 ± 0.17
303.1 K	1.11 ± 0.22	1.08 ± 0.22
308.1 K	1.37 ± 0.27	1.32 ± 0.26
313.1 K	1.67 ± 0.33	1.6 ± 0.32
318.1 K	2.02 ± 0.4	1.91 ± 0.38
323.1 K	2.4 ± 0.48	2.26 ± 0.45
328.1 K	2.81 ± 0.56	2.64 ± 0.53
333.1 K	3.29 ± 0.66	3.11 ± 0.62
338.1 K	3.8 ± 0.76	3.56 ± 0.71
343.1 K	4.34 ± 0.87	4.02 ± 0.8
348.1 K	4.9 ± 0.98	4.56 ± 0.91
353.1 K	5.68 ± 1.1	5.08 ± 1
358.1 K	6.27 ± 1.2	5.63 ± 1.1
363.1 K	7.13 ± 1.4	6.17 ± 1.2
368.1 K	7.95 ± 1.6	7.28 ± 1.5
373.1 K	8.5 ± 1.7	8.09 ± 1.6
378.1 K	9.11 ± 1.8	9.1 ± 1.8
383.1 K	9.97 ± 2	9.72 ± 1.9
388.1 K	10.9 ± 2.2	10.1 ± 2
393.1 K	11.8 ± 2.4	10.4 ± 2.1
398.1 K	12.3 ± 2.5	–
403.1 K	12.7 ± 2.5	–
